Measured values published in ChEMBL document CHEMBL1201862, “PubChem BioAssay data set” (2004).
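Values below derive from 48-hour exposures of cells grown in 96-well plates, with endpoints linearly interpolated between the two concentrations bracketing the appropriate inhibition level. GI50 = concentration required for 50% inhibition of growth.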 The source made the active and inactive calls. Cut-off read from the data, not from the text of the source: active = GI50 up to about 1.1 µM and inactive = higher.

Key:
Assay in all cases: growth of human tumour cells (NCI), 48 h
HCT-15 = tested on: HCT-15
NCI-H23 = tested on: NCI-H23
NCI-H522 = tested on: NCI-H522
HCT-116 = tested on: HCT-116
RXF 393 = tested on: RXF 393
SN12C = tested on: SN12C
HCC 2998 = tested on: HCC 2998
MCF7 = tested on: MCF7
OVCAR-8 = tested on: OVCAR-8
SNB-75 = tested on: SNB-75
OVCAR-5 = tested on: OVCAR-5
UACC-257 = tested on: UACC-257
UACC-62 = tested on: UACC-62
SW-620 = tested on: SW-620
LOX IMVI = tested on: LOX IMVI
IGROV-1 = tested on: IGROV-1
A498 = tested on: A498
HT-29 = tested on: HT-29
SK-MEL-5 = tested on: SK-MEL-5
M14 = tested on: M14

Measured: GI50

O=C1CCCCN1
> 1120 µM: HCT-15
inactive: NCI-H23 > 1120 µM | NCI-H522 > 1120 µM | HCT-116 > 1120 µM | RXF 393 272 µM | SN12C > 267 µM | HCC 2998 333 µM | MCF7 > 1120 µM | OVCAR-8 > 1120 µM | SNB-75 > 1120 µM | OVCAR-5 > 1120 µM | UACC-257 > 1120 µM | UACC-62 > 411 µM | SW-620 > 1120 µM | LOX IMVI > 1120 µM | IGROV-1 > 1120 µM | A498 > 52 µM | HT-29 > 1120 µM | SK-MEL-5 > 1120 µM

O=NN1C(c2ccccc2)CNC(=O)CC1c1ccccc1 (stereo not given)
36 µM: HCT-15
inactive: NCI-H23 33.1 µM | NCI-H522 20.3 µM | HCT-116 38.5 µM | RXF 393 22.2 µM | SN12C 53 µM | HCC 2998 27.3 µM | MCF7 24.9 µM | OVCAR-8 65.5 µM | SNB-75 20.8 µM | OVCAR-5 > 100 µM | UACC-257 36.4 µM | UACC-62 44.4 µM | SW-620 38.1 µM | LOX IMVI 46.7 µM | IGROV-1 63.5 µM | A498 35.6 µM | HT-29 28.6 µM | SK-MEL-5 25.3 µM

COc1ccc(-c2c3c(nc4nc(SC)nc(SC)c24)CCCC3)cc1OC
inactive: NCI-H23 > 100 µM | NCI-H522 31.6 µM | HCT-116 44.4 µM | RXF 393 25.9 µM | SN12C > 100 µM | HCC 2998 > 100 µM | MCF7 41.5 µM | SNB-75 28.2 µM | OVCAR-5 > 100 µM | UACC-257 > 100 µM | UACC-62 67.6 µM | M14 81.7 µM | SW-620 67.5 µM | LOX IMVI 46.6 µM | IGROV-1 > 100 µM | A498 > 100 µM | HT-29 36.6 µM | SK-MEL-5 80.2 µM
16 µM: HCT-15

NC12CCC(CC1=O)C2 (stereo not given)
> 100 µM: HCT-15
inactive: NCI-H23 > 100 µM | HCT-116 > 100 µM | SN12C > 100 µM | HCC 2998 > 100 µM | MCF7 > 100 µM | OVCAR-8 > 100 µM | SNB-75 > 100 µM | OVCAR-5 > 100 µM | UACC-257 > 100 µM | UACC-62 > 100 µM | M14 > 100 µM | SW-620 > 100 µM | LOX IMVI > 100 µM | IGROV-1 > 100 µM | HT-29 > 100 µM | SK-MEL-5 > 100 µM

CC(=O)N1N=C(c2ccc3ccccc3c2O)CC1c1cccs1 (stereo not given)
inactive: NCI-H23 20.3 µM | NCI-H522 14.9 µM | HCT-116 9.89 µM | RXF 393 15.7 µM | SN12C 12.1 µM | HCC 2998 21.6 µM | MCF7 10.9 µM | OVCAR-8 16.9 µM | SNB-75 25.5 µM | OVCAR-5 32.4 µM | UACC-257 34.8 µM | UACC-62 9.31 µM | M14 14.4 µM | SW-620 16 µM | IGROV-1 11.4 µM | A498 12.7 µM | HT-29 21.9 µM | SK-MEL-5 18.3 µM
14 µM: HCT-15

COc1ccc(C[C@H](N)C(=O)N2C[C@H](CO)C[C@H](n3cnc4c(N(C)C)ncnc43)C2)cc1
> 100 µM: HCT-15
inactive: NCI-H23 > 100 µM | NCI-H522 > 100 µM | HCT-116 > 100 µM | RXF 393 > 100 µM | SN12C > 100 µM | HCC 2998 > 100 µM | OVCAR-8 > 100 µM | OVCAR-5 > 100 µM | UACC-62 > 100 µM | M14 > 100 µM | SW-620 > 100 µM | LOX IMVI > 100 µM | IGROV-1 > 100 µM | HT-29 > 100 µM | SK-MEL-5 > 100 µM

O=c1cc(-c2nc3ccccc3[nH]2)[nH]c2nc(-c3nc4ccccc4[nH]3)cc(-c3ccc(Cl)cc3)c12
inactive: NCI-H23 40.2 µM | NCI-H522 6.27 µM | HCT-116 17 µM | RXF 393 14.5 µM | SN12C 16.5 µM | MCF7 12.9 µM | OVCAR-8 28.6 µM | OVCAR-5 29 µM | UACC-257 23.7 µM | UACC-62 14 µM | M14 23.8 µM | SW-620 21.5 µM | LOX IMVI 15.5 µM | IGROV-1 1.42 µM | HT-29 20 µM | SK-MEL-5 15.7 µM
10 µM: HCT-15

O=C1CSC(C(/N=N/c2ccc(Cl)cc2)c2nc3ccccc3[nH]2)=N1 (stereo not given)
inactive: NCI-H23 63 µM | NCI-H522 25.9 µM | HCT-116 > 100 µM | SN12C > 100 µM | HCC 2998 25.6 µM | OVCAR-8 82.8 µM | SNB-75 25.6 µM | OVCAR-5 > 100 µM | UACC-257 > 100 µM | UACC-62 > 100 µM | M14 > 100 µM | SW-620 > 100 µM | A498 > 100 µM | HT-29 > 100 µM | SK-MEL-5 25.6 µM
> 100 µM: HCT-15

COC1C(=[N+]=[N-])C(=O)NC(=O)N1C1OC(COC(c2ccccc2)(c2ccccc2)c2ccccc2)C(O)C1O (stereo not given)
inactive: NCI-H23 18.2 µM | NCI-H522 16.2 µM | HCT-116 18.2 µM | SN12C 16.3 µM | HCC 2998 18.4 µM | OVCAR-8 19.2 µM | SNB-75 15 µM | OVCAR-5 17.8 µM | UACC-257 > 10 µM | UACC-62 15.1 µM | M14 19 µM | SW-620 18.5 µM | LOX IMVI 15.5 µM | IGROV-1 20.6 µM | A498 20.1 µM | HT-29 18.7 µM | SK-MEL-5 16.2 µM
18 µM: HCT-15
